Literature values as cited in paper PMC7775502, “Molecular Screening Strategy to Identify a Non-invasive Delivery Mechanism for the Treatment of Middle Ear Disorders” (Frontiers in Medicine, 2020).

Columns and labels:
[1] = test system: intact tympanic membrane (TM); settings: peptide phage, incubation 1 h on the exterior surface of the TM, ref Kurabi et al. ([26])
From the text: Table 1 The sequences and ME recovery of the trans-TM, 12-mer backbone peptides (TMT-2 and TMT-3) plus the top 18-mer peptide phages from the 18-mer screen. | column: Mean recovery from ME (PFUs)

[2] = test system: intact TM of ex vivo ME bulla; settings: review of the authors' earlier work
Description: In order to learn more about the mechanisms of phage transport phenomena, several experiments were designed to evaluate the impact of concentration, temperature, and oxygen levels on transport across the TM. […] Next, we tested the sensitivity of transport to oxygen deprivation and temperature using the ex vivo, intact ME bulla. When ME recovery of phage TMT-3 was assessed at various times after death, transport was observed up to 6 h postmortem, after which it ceased. Wh ...

[3] = test system: human TM; settings: in vitro two-chamber assay, discarded TM fragments from patients undergoing TM repair; ref [28]
From the text: (§1) We first tested trans-TM phage TMT-3 transport across TMs from NTHi-infected MEs of rats as well as from rats with normal MEs.

[4] = test system: rabbit TM fragments; settings: in vitro two-chamber assay, uninfected MEs; ref [28]
From the text: as §1

[5] = test system: rat TM; settings: in vitro two-chamber assay, ref [28]
From the text: as §1

[6] = test system: guinea pig TM fragments; set-up: method as in PMID 30087425; settings: in vitro two-chamber assay, uninfected MEs; ref [28]

In the case of “TLSPKMPGGGYW [TMT-2, M13 bacteriophage expressing 12-mer trans-TM backbone peptide […] on pIII protein]”, the “Mean recovery from ME (PFUs)” value [1] is listed as 5,900 PFUs.

In the case of “LANNNLTLSPKMPGGGYW [TMT-2(18)-1, M13 bacteriophage expressing 18-mer trans-TM peptide […] on pIII protein]”, the “Mean recovery from ME (PFUs)” value [1] is listed as 120 PFUs.

In the case of “KISVYRSADSTKTTHLTL [TMT-3(18)-2, M13 bacteriophage expressing 18-mer trans-TM peptide […] on pIII protein]”, the “Mean recovery from ME (PFUs)” value [1] is given as 40,000 PFUs.

In the case of “SADSTKTTHLTL [TMT-3, M13 bacteriophage expressing 12-mer trans-TM backbone peptide […] on pIII protein]”, the “Mean recovery from ME (PFUs)” value [1] is given as 10,800 PFUs, the “Transport at lowered bulla temperature” value ([2]; 4°C, transport over 1 h) is given as “almost entirely eliminated” and the “Time after death up to which transport was observed” value ([2]; ME recovery of phage at various times postmortem, transport ceased afterwards) is given as “up to 6 h”. The “Transport across human TM” value [3] was “comparable levels”, the “Transport across uninfected rabbit TM fragments compared with other species” value [4] was “similar” and the “Transport across TMs from NTHi-infected MEs versus normal MEs” value ([5]; 1.5 mm chambers, rat TMs) was “no difference in transport”. The “Transport across uninfected rat TM fragments compared with other species” value ([5]; uninfected MEs) was “similar” and the “Transport across uninfected guinea pig TM fragments compared with other species” value [6] was “similar”.

In the case of “VPQGATTLSPKMPGGGYW [TMT-2(18)-3, M13 bacteriophage expressing 18-mer trans-TM peptide […] on pIII protein]”, the “Mean recovery from ME (PFUs)” value [1] is listed as 3,000 PFUs.

For “TEVTSRSADSTKTTHLTL [TMT-3(18)-3, M13 bacteriophage expressing 18-mer trans-TM peptide […] on pIII protein]”, the “Mean recovery from ME (PFUs)” value [1] is given as 280 PFUs.

In the case of “EGHLFPSADSTKTTHLTL [TMT-3(18)-1, M13 bacteriophage expressing 18-mer trans-TM peptide […] on pIII protein]”, the “Mean recovery from ME (PFUs)” value [1] is listed as 90,000 PFUs.

In the case of “SPTIFSTLSPKMPGGGYW [TMT-2(18)-2, M13 bacteriophage expressing 18-mer trans-TM peptide […] on pIII protein]”, the “Mean recovery from ME (PFUs)” value [1] is listed as 12,000 PFUs.
